For one assay, the target named is D(3) dopamine receptor (Homo sapiens, UniProt P35462). In words: Displacement of [3H]spiperone from human dopamine D3 receptor expressed in chinese hamster CHO cells by radioligand binding assay. The format is cell-based. For orientation: Displacement assays read how much labelled ligand stays bound in the presence of the test substance.
The target in the next assay is D(1A) dopamine receptor (Sus scrofa, UniProt P50130). In words: Displacement of [3H]SCH 23390 from pig dopamine D1 receptor in striatal membrane. The format is cell membranes, Striatum.
Sequence of D(1A) dopamine receptor (P50130 whole entry): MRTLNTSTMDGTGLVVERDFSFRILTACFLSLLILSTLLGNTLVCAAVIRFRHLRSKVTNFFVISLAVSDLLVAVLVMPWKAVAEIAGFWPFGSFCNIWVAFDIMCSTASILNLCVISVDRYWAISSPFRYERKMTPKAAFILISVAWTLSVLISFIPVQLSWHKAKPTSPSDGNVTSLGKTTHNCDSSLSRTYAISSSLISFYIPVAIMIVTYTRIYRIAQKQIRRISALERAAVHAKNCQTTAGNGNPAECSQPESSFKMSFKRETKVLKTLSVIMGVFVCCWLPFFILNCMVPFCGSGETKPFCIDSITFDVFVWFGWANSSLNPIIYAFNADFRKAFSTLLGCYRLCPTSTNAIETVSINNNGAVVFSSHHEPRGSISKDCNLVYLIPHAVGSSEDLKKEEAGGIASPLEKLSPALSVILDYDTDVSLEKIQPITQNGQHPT
The target in another assay is T1, D(4) dopamine receptor (Homo sapiens, UniProt P21917).
T1 sequence (P21917 whole entry): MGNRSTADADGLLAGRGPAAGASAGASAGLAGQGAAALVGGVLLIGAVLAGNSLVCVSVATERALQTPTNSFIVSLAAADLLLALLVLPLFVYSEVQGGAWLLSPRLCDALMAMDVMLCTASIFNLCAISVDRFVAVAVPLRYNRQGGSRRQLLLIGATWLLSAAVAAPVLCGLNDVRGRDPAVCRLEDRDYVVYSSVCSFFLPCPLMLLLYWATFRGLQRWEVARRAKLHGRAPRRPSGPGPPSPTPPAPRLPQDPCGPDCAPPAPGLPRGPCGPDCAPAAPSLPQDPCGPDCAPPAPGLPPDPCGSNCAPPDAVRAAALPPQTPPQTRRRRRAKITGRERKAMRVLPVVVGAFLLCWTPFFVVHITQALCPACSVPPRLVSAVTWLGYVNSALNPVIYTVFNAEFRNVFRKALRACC
In words: Displacement of [3H]spiperone from human dopamine D4.4 receptor expressed in chinese hamster CHO cells by radioligand binding assay. The format is cell-based.

The target in assay [1] is T2, D(2) dopamine receptor (Homo sapiens, UniProt P14416). In words: Displacement of [3H]spiperone from human DRD2 Long receptor expressed in chinese hamster CHO cells by radioligand binding assay. The format is cell-based.
T2 sequence (P14416 whole entry): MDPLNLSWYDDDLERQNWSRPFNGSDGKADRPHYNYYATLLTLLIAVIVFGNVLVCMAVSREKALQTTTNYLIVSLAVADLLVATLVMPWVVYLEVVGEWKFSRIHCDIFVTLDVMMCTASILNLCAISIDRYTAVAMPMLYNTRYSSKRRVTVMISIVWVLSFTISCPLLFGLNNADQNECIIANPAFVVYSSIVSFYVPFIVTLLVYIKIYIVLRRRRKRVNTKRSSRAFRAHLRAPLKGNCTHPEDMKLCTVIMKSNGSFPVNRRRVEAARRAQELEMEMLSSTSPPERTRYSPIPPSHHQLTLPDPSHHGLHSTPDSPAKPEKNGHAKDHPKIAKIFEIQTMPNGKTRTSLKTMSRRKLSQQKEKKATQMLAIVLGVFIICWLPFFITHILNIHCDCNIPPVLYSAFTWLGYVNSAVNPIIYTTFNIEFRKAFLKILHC
Assay [2] has as its target T2, D(2) dopamine receptor. The assay can be described thus: Displacement of [3H]spiperone from human DRD2 short receptor expressed in chinese hamster CHO cells by radioligand binding assay. The format is cell-based.
Assay [3] deals with T2, D(2) dopamine receptor. The assay can be described thus: Antagonist activity at DRD2 Long receptor expressed in CHO cells assessed as […] of forskolin-stimulated cAMP accumulation by bioluminescence assay relative to quinpirole. The format is functional, cell-based. (In general: Changes in cAMP serve as a functional read-out for many G protein-coupled receptors.)
In assay [4] the target is T2, D(2) dopamine receptor. The assay can be described thus: Agonist activity at DRD2 Long receptor expressed in CHO cells assessed as inhibition of forskolin-stimulated cAMP accumulation by bioluminescence assay. The format is functional, cell-based.
Assay [5] has as its target T2, D(2) dopamine receptor. The assay can be described thus: Partial agonist activity at DRD2 Long receptor expressed in CHO cells assessed as inhibition of forskolin-stimulated cAMP accumulation by bioluminescence assay relative to quinpirole. The format is functional, cell-based.
For assay [6], the target named is T2, D(2) dopamine receptor. The assay can be described thus: Partial agonist activity at DRD2 Long receptor expressed in CHO cells assessed as inhibition of forskolin-stimulated cAMP accumulation by bioluminescence assay. The format is functional, cell-based.

Sequence of D(3) dopamine receptor (P35462 whole entry): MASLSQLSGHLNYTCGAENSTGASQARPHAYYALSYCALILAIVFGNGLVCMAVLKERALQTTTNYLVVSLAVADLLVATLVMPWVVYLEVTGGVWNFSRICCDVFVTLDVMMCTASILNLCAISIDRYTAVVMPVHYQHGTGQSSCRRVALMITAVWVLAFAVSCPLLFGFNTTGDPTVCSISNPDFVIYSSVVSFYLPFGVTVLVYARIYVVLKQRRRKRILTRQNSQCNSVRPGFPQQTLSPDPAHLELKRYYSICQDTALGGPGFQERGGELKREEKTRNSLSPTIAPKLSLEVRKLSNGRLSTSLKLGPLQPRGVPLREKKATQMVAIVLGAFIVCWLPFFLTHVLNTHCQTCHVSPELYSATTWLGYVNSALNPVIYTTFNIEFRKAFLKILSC

The Ki is the dissociation constant of the complex between target and ligand, obtained from inhibition or displacement. Read a low Ki as tighter binding. Turning to `CCCCn1cc(CCCOc2ccc(C(=O)NCCCCN3CCN(c4ccccc4OC)CC3)cc2OC)nn1`, the Ki at D(3) dopamine receptor was 2 nM; at D(1A) dopamine receptor it was 1200 nM; on D(4) dopamine receptor it was 84 nM; at D(2) dopamine receptor [1], 17 nM; on D(2) dopamine receptor [2], 12 nM.
Turning to `CCCN(CCCCNC(=O)c1ccc(OCCCc2cn(CCCCCCCCn3cc(CCCOc4ccc(C(=O)NCCCCN5CCN(c6ccccc6OC)CC5)cc4OC)nn3)nn2)c(OC)c1)C1Cc2ccccc2C1`, the Ki was determined as 2 nM at D(3) dopamine receptor; 200 nM on D(1A) dopamine receptor; 40 nM at D(4) dopamine receptor; 25 nM on D(2) dopamine receptor [1]; 17 nM on D(2) dopamine receptor [2]. At D(2) dopamine receptor [3], the Efficacy was less than 3%.
`COc1cc(C(=O)NCCCCN2CCN(c3ccccc3OC)CC2)ccc1OCCCc1cn(CCCCCCCCn2cc(CCCOc3ccc(C(=O)NCCCCN4CCN(c5ccccc5OC)CC4)cc3OC)nn2)nn1`: the Ki on D(3) dopamine receptor is 12 nM; on D(1A) dopamine receptor, 2800 nM; on D(4) dopamine receptor, 660 nM; at D(2) dopamine receptor [1] it was 110 nM; on D(2) dopamine receptor [2] it was 110 nM.
In general, EC50 refers to the concentration giving half of the maximal effect. For `CCCCn1cc(CCCOc2ccc(C(=O)NCCCCN(CCC)C3Cc4ccccc4C3)cc2OC)nn1`, the Ki on D(3) dopamine receptor came out at 0.71 nM; on D(1A) dopamine receptor, 6000 nM; on D(4) dopamine receptor it was 42 nM; on D(2) dopamine receptor [1], 12 nM; at D(2) dopamine receptor [2], 4.1 nM. Also, the EC50 on D(2) dopamine receptor [4] was 13 nM.
For `CCCN(CCCCNC(=O)c1ccc(OCCCc2cn(CCCCCCCCn3cc(CCCOc4ccc(C(=O)NCCCCN(CCC)C5Cc6ccccc6C5)cc4OC)nn3)nn2)c(OC)c1)C1Cc2ccccc2C1`, the Ki on D(3) dopamine receptor turned out to be 1.8 nM; at D(1A) dopamine receptor it was 510 nM; on D(4) dopamine receptor, 34 nM; on D(2) dopamine receptor [1] it was 16 nM; on D(2) dopamine receptor [2], 16 nM. Further, at D(2) dopamine receptor [4], the EC50 is 440 nM.
Turning to `CCCN(CCCCNC(=O)c1ccc(OCCCc2cn(CCCCCCCCn3cc(CCCOc4ccc(CN5CCN(c6ccccc6OC)CC5)cc4OC)nn3)nn2)c(OC)c1)C1Cc2ccccc2C1`, the Ki on D(3) dopamine receptor stood at 1.2 nM; at D(1A) dopamine receptor, 330 nM; on D(4) dopamine receptor, 22 nM; on D(2) dopamine receptor [1] it was 14 nM; at D(2) dopamine receptor [2], 8.8 nM. For the same compound, the Efficacy on D(2) dopamine receptor [5] was 13%. Further, on D(2) dopamine receptor [6], the half-maximal effective concentration (EC50) was 380 nM.

Source of the values: ChEMBL document CHEMBL1914371, “Development of a bivalent dopamine D₂ receptor agonist” (J Med Chem, 2011).
